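Each compound was tested at five concentrations against cells in 96-well plates for 48 hours. TGI denotes the concentration required for complete inhibition of growth.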
What was measured:
Test in all cases: NCI tumour cell line growth inhibition, 48 h
SK-MEL-28 melanoma = test system: SK-MEL-28 melanoma
BT-549 breast = test system: BT-549 breast
K-562 leukemia = test system: K-562 leukemia
RPMI-8226 leukemia = test system: RPMI-8226 leukemia
SNB-75 CNS = test system: SNB-75 CNS
SK-MEL-2 melanoma = test system: SK-MEL-2 melanoma
HOP-92 NSCLC = test system: HOP-92 NSCLC
ACHN renal = test system: ACHN renal
SNB-19 CNS = test system: SNB-19 CNS
NCI/ADR-RES ovarian = test system: NCI/ADR-RES ovarian
PC-3 prostate = test system: PC-3 prostate
UO-31 renal = test system: UO-31 renal
UACC-62 melanoma = test system: UACC-62 melanoma
MDA-MB-435 = test system: MDA-MB-435
MDA-N = test system: MDA-N
MALME-3M melanoma = test system: MALME-3M melanoma
MOLT-4 leukemia = test system: MOLT-4 leukemia
HT29 colon = test system: HT29 colon
SN12C renal = test system: SN12C renal
MDA-MB-231 breast = test system: MDA-MB-231 breast
SF-268 CNS = test system: SF-268 CNS
NCI-H226 lung = test system: NCI-H226 lung
CAKI-1 renal = test system: CAKI-1 renal
M14 melanoma = test system: M14 melanoma
HS 578T breast = test system: HS 578T breast
DU-145 prostate = test system: DU-145 prostate
HCT-116 colon = test system: HCT-116 colon
CCRF-CEM leukemia = test system: CCRF-CEM leukemia
SK-MEL-5 melanoma = test system: SK-MEL-5 melanoma
T-47D breast = test system: T-47D breast
U251 CNS = test system: U251 CNS
786-0 renal = test system: 786-0 renal
A549 NSCLC = test system: A549 NSCLC
SF-539 CNS = test system: SF-539 CNS
EKVX NSCLC = test system: EKVX NSCLC
SW-620 colon = test system: SW-620 colon
UACC-257 melanoma = test system: UACC-257 melanoma
OVCAR-8 ovarian = test system: OVCAR-8 ovarian
KM12 colon = test system: KM12 colon
NCI-H522 lung = test system: NCI-H522 lung
NCI-H23 lung = test system: NCI-H23 lung
COLO 205 colon = test system: COLO 205 colon
TK-10 renal = test system: TK-10 renal
HL-60(TB) leukemia = test system: HL-60(TB) leukemia
IGROV1 ovarian = test system: IGROV1 ovarian
HCT-15 colon = test system: HCT-15 colon
SR leukemia = test system: SR leukemia
NCI-H460 lung = test system: NCI-H460 lung
A498 renal = test system: A498 renal
OVCAR-4 ovarian = test system: OVCAR-4 ovarian
MCF7 breast = test system: MCF7 breast
OVCAR-3 ovarian = test system: OVCAR-3 ovarian
OVCAR-5 ovarian = test system: OVCAR-5 ovarian
SK-OV-3 ovarian = test system: SK-OV-3 ovarian
HOP-62 NSCLC = test system: HOP-62 NSCLC
RXF 393 renal = test system: RXF 393 renal
HCC-2998 colon = test system: HCC-2998 colon
SF-295 CNS = test system: SF-295 CNS

`Cc1nc(Nc2nc3ccccc3[nH]2)nc(Cl)c1CCCl` was tested, and the TGI (SK-MEL-28 melanoma) was > 100 µM, the TGI (BT-549 breast) was > 100 µM and the TGI (K-562 leukemia) was > 100 µM. For the same compound, the TGI (RPMI-8226 leukemia) was > 100 µM, the TGI (SNB-75 CNS) was > 100 µM and the TGI (SK-MEL-2 melanoma) was > 100 µM. For the same compound, the TGI (HOP-92 NSCLC) was 90.3 µM, the TGI (ACHN renal) was > 100 µM and the TGI (SNB-19 CNS) was > 100 µM. The TGI (NCI/ADR-RES ovarian) was > 100 µM, the TGI (PC-3 prostate) was > 100 µM and the TGI (UO-31 renal) was > 100 µM. For the same compound, the TGI (UACC-62 melanoma) was > 100 µM, the TGI (MDA-MB-435) was > 100 µM and the TGI (MDA-N) was > 100 µM. For the same compound, the TGI (MALME-3M melanoma) was > 100 µM, the TGI (MOLT-4 leukemia) was > 100 µM and the TGI (HT29 colon) was > 100 µM. For the same compound, the TGI (SN12C renal) was > 100 µM, the TGI (MDA-MB-231 breast) was > 100 µM and the TGI (SF-268 CNS) was > 100 µM. The TGI (NCI-H226 lung) was > 100 µM, the TGI (CAKI-1 renal) was > 100 µM and the TGI (M14 melanoma) was > 100 µM. For the same compound, the TGI (HS 578T breast) was > 100 µM, the TGI (DU-145 prostate) was > 100 µM and the TGI (HCT-116 colon) was > 100 µM. For the same compound, the TGI (CCRF-CEM leukemia) was > 100 µM, the TGI (SK-MEL-5 melanoma) was > 100 µM and the TGI (T-47D breast) was > 100 µM. The TGI (U251 CNS) was > 100 µM, the TGI (786-0 renal) was > 100 µM and the TGI (A549 NSCLC) was > 100 µM. For the same compound, the TGI (SF-539 CNS) was > 100 µM, the TGI (EKVX NSCLC) was > 100 µM and the TGI (SW-620 colon) was > 100 µM. For the same compound, the TGI (UACC-257 melanoma) was > 100 µM, the TGI (OVCAR-8 ovarian) was > 100 µM and the TGI (KM12 colon) was > 100 µM. The TGI (NCI-H522 lung) was > 100 µM, the TGI (NCI-H23 lung) was > 100 µM and the TGI (COLO 205 colon) was > 100 µM. For the same compound, the TGI (TK-10 renal) was > 100 µM, the TGI (HL-60(TB) leukemia) was > 100 µM and the TGI (IGROV1 ovarian) was > 100 µM. For the same compound, the TGI (HCT-15 colon) was > 100 µM, the TGI (SR leukemia) was > 100 µM and the TGI (NCI-H460 lung) was > 100 µM. For the same compound, the TGI (A498 renal) was > 100 µM and the TGI (OVCAR-4 ovarian) was > 100 µM.

`N#C/C(=C1/c2cc([N+](=O)[O-])ccc2-c2c1cc([N+](=O)[O-])cc2[N+](=O)[O-])N1CCCCC1` was tested, and the TGI (SK-MEL-28 melanoma) was > 100 µM, the TGI (BT-549 breast) was > 100 µM and the TGI (K-562 leukemia) was > 100 µM. The TGI (RPMI-8226 leukemia) was > 100 µM, the TGI (SNB-75 CNS) was 41.2 µM and the TGI (MCF7 breast) was > 100 µM. For the same compound, the TGI (OVCAR-3 ovarian) was > 100 µM, the TGI (SK-MEL-2 melanoma) was > 100 µM and the TGI (ACHN renal) was > 100 µM. The TGI (SNB-19 CNS) was > 100 µM, the TGI (NCI/ADR-RES ovarian) was > 100 µM and the TGI (OVCAR-5 ovarian) was > 100 µM. The TGI (SK-OV-3 ovarian) was > 100 µM, the TGI (HOP-62 NSCLC) was > 100 µM and the TGI (PC-3 prostate) was > 100 µM. The TGI (RXF 393 renal) was > 100 µM, the TGI (UO-31 renal) was > 100 µM and the TGI (UACC-62 melanoma) was > 100 µM. The TGI (MDA-MB-435) was > 100 µM, the TGI (MDA-N) was > 100 µM and the TGI (MALME-3M melanoma) was > 100 µM. The TGI (MOLT-4 leukemia) was > 100 µM, the TGI (HT29 colon) was > 100 µM and the TGI (SN12C renal) was > 100 µM. For the same compound, the TGI (MDA-MB-231 breast) was > 100 µM, the TGI (SF-268 CNS) was > 100 µM and the TGI (HCC-2998 colon) was > 100 µM. For the same compound, the TGI (NCI-H226 lung) was > 100 µM, the TGI (CAKI-1 renal) was > 100 µM and the TGI (M14 melanoma) was > 100 µM. The TGI (HS 578T breast) was > 100 µM, the TGI (DU-145 prostate) was > 100 µM and the TGI (HCT-116 colon) was > 100 µM. For the same compound, the TGI (CCRF-CEM leukemia) was > 100 µM, the TGI (SK-MEL-5 melanoma) was > 100 µM and the TGI (T-47D breast) was > 100 µM. The TGI (U251 CNS) was > 100 µM, the TGI (786-0 renal) was > 100 µM and the TGI (A549 NSCLC) was > 100 µM. For the same compound, the TGI (SF-295 CNS) was > 100 µM, the TGI (EKVX NSCLC) was > 100 µM and the TGI (SW-620 colon) was > 100 µM. The TGI (UACC-257 melanoma) was > 100 µM, the TGI (OVCAR-8 ovarian) was > 100 µM and the TGI (KM12 colon) was > 100 µM. For the same compound, the TGI (NCI-H522 lung) was > 100 µM, the TGI (NCI-H23 lung) was > 100 µM and the TGI (COLO 205 colon) was > 100 µM. The TGI (TK-10 renal) was > 100 µM, the TGI (IGROV1 ovarian) was > 100 µM and the TGI (HCT-15 colon) was > 100 µM. The TGI (SR leukemia) was 4.44 µM, the TGI (A498 renal) was > 100 µM and the TGI (OVCAR-4 ovarian) was 69.7 µM.
